# Data from patent US12171226B2, “Development of pheromone assisted techniques to improve efficacy of insecticide sprays targeting urban pest ant species” (The Regents of the University of California, priority 2012, dated 2024).
# Columns and labels:
# Argentine ants [1] = test: Experiment #1: field attraction of ants from an existing trail to a pheromone-sprayed sand patch; assay type: in vivo, Linepithema humile
# Procedure: Experiment #1 was conducted to observe would synthetic trail pheromone spray deposit attract the ants from an existing trail? The study was conducted in the biological control grove at the University of California, Riverside, in April 2012. The site supports a large population of Argentine ants, primarily because of the absence of chemical insecticide use and the existence of honeydew-producing insects in the citrus trees. Five different trails of Argentine ants were located, which were relatively straight and at least 30-cm long, and originating from different nests. By using these trails as “existing trails,” tests were performed to see if the “pheromone assisted technique” would attract ants from the existing trails. For the pheromone treatment, two patches of sand were made, one on each side of the existing trail by evenly spreading 52.5 grams (g) of sand in a square (20 by 20 cm). The distance between two patches was about 5 cm. One patch served as a treatment, and the other one served as a control. For the treatment, 1 mg of the synthetic pheromone compound [(Z)-9-hexadecenal] dissolved in 1 ml of ethyl alcohol was mixed with 500 ml of deionized water. […]
# Each sand patch was treated with four sprays (each spray targeting 10 by 10 cm areas on one corner). […] The numbers of ants on the 20 by 20-cm sand patches were counted at 2 and 4 min post-treatment using the photographs. […]
# Argentine ants [2] = test: Experiment #2: field attraction of ants from nest entrance and nearby trails to a pheromone-sprayed sand patch; assay type: in vivo, Linepithema humile
# Procedure: Experiment #2 was conducted to observe would synthetic trail pheromone spray deposit attract the ants from a nest entrance and nearby trails? The study was conducted in the biological control grove at the University of California, Riverside, in Apr. 23, 2012. Nest entrances of Argentine ant colonies were located, which had active trails associated with them (one nest entrance per nest). By using the nest entrance and trails associated with the nest entrance, the pheromone assisted technique” was tested to see if it would attract ants from the nest entrance and nearby trails. For the pheromone treatment, two patches were made of sand on both sides of the nest entrance by evenly spreading 52.5 g of sand in a square (20 by 20 cm). The distance between the two patches was about 5 cm. The method and rate of application were identical with those of experiment #1.
# Both sand patches were photographed at 1, 2, and 3 min after application of sprays. The study was replicated ten times by using a different nest entrance for each replicate. The numbers of ants on the 20 by 20-cm sand patches were counted at 1, 2, and 3 minute post-treatment using the photographs. The average values were compared between treatment and control with a paired T-test (one-sided, Analytical Software 2008). […]
# Argentine ants [3] = test: Experiment #3: laboratory colony mortality after spray applied away from the ant nest; assay type: in vivo, Linepithema humile; settings: 0.01% fipronil and/or approx. 12 ng per cm^2 (Z)-9-hexadecenal; 3 ml on 491 cm^2 sand; colony about 731 ants; n=5-6
# Procedure: Experiment #3 was conducted to observe would co-application of synthetic trail pheromone improve the efficacy of fipronil insecticide spray applied away from the ant nest? A laboratory study was conducted to determine if the efficacy of an insecticide spray (fipronil) can be improved by adding with a synthetic attractant trail pheromone. Argentine ants were collected from a citrus grove (biological control grove) on the University of California, Riverside, campus. Ant nests were excavated from the ground and transported to a laboratory chamber where they were extracted from the soil. Laboratory stock colonies were maintained in plastic boxes (26.5 by 30 by 10 cm) with the inner sides coated with Teflon™ Fluoropolymer resin, type 30, DuPont Polymers) to prevent ants from escaping. Each colony was provided with two or three artificial nests constructed from plaster-filled petri dishes (9 cm in diameter by 1.5 cm in depth) formed with a 5-cm-diameter by 1-cm-deep cylindrical area in the center of the dish to serve as a nesting space. […]
# Three different spray preparations were tested: (a) pheromone+fipronil, (b) fipronil only, and (c) pheromone only. […] The dead ants were removed from the colony box and counted daily. […]
# [4] = test system: Argentine ant populations; settings: relatively large quantities, stand-alone treatment, field; cited from earlier work
SMILES,"number of ants on treated sand patch relative to control patch (Argentine ants [1]; approx. 12 ng per cm^2, paired T-test P=0.033)","average number of ants on the 20 by 20-cm sand patch (mean±SEM) (Argentine ants [1]; approx. 12 ng per cm^2 on sand, counts at 2 and 4 min post-treatment averaged, 5 replicates, existing trail)","number of ants on treated sand patch relative to control patch (Argentine ants [2]; approx. 12 ng per cm^2, paired T-test P<0.001)","average number of ants on the 20 by 20-cm sand patch (mean±SEM) (Argentine ants [2]; approx. 12 ng per cm^2 on sand, counts at 1, 2 and 3 min post-treatment, 10 replicates, nest entrance and nearby trails)",cumulative number of dead ants at day 7 post-treatment (mean±SEM) (Argentine ants [3]),impact on Argentine ant populations [4]
CCCCCC/C=C\CCCCCCCC=O [(Z)-9-hexadecenal],more than two times higher,10.4±4.0,more than five times higher,18.1±3.0,65.8±11.0,negligible impact
"N#Cc1nn(-c2c(Cl)cc(C(F)(F)F)cc2Cl)c(N)c1[S+]([O-])C(F)(F)F (stereo not shown) [fipronil only, fipronil]",,,,,291±27.1,
